Assays:
[1] = Pharmacokinetic evaluation after intravenous or gavage administration to dogs; type: in vivo, Beagle dogs; details: for AUC(0-inf) / AUC(0-t) / Cmax / MRT inf / Tmax / clearance / half-life / Vd: beagle, dog, plasma; for Vd: read-out: Vss
Protocol: Example B: Pharmacokinetic Evaluation after Administering a Certain Amount of the Compounds of the Invention Intravenously or by Gavage to Dogs and Monkeys
In vivo pharmacokinetic assays in dogs and cynomolgus monkeys of the compounds disclosed herein were performed by the following steps.
Experiments were divided into two groups, one group was administered through intravenous drug delivery, and the other group was administered by gavage. The compounds disclosed herein were administered in form of a saline solution containing 5% DMSO, 5% Kolliphor HS 15, 2% (2% HCl) and 88% Saline, or the solution containing 10% DMSO, 10% Kolliphor HS 15 and 80% physiological saline. For intravenous administration, the animals were administered with a dose of 1 mg/kg, and 0.3 mL of vein blood was collected at the time points of 0.083, 0.25, 0.5, 1.0, 2.0, 4.0, 6.0, 8.0 and 24 h after drug administration (the time point of drug administration was set as 0 h), then each blood sample was processed to separate plasma by centrifugation at 3000 rpm or 4000 rpm for 10 minutes, and plasma was collected and stored at −20° C. or −70° C. until LC/MS/MS analysis described above. For gavage administration, the animals were administered with a dose of 2.5 mg/kg or 5 mg/kg, and 0.3 mL of vein blood was collected at the time points of 0.25, 0.5, 1.0, 2.0, 4.0, 6.0, 8.0 and 24 h after drug administration (the time point of drug administration was set as 0 h), then each blood sample was processed to separate plasma by centrifugation at 3000 rpm or 4000 rpm for 10 minutes, and plasma was collected and stored at −20° C. or −70° C. until LC/MS/MS analysis described above.
The above plasma was analyzed by the LC/MS/MS system.

[2] = Stability in rat liver microsomes; type: in vitro ADME; details: rat liver microsome 0.5 mg/mL, 1 μM compound, 37° C.; for half-life at 1 μM: pH 7.4; for CLint scaled at 1 μM: pH 7.4, read-out: Intrinsic clearance
Protocol: (§1) Example C: Evaluation of the Stability of the Compounds of the Invention in Rat and Human Liver Microsomes
(§2) The compound of the invention and rat liver microsome or human liver microsome were placed in 0.1 M potassium phosphate buffer (containing 1.0 mM EDTA, pH=7.4) at 37° C., and the mixture was incubated at 37° C. The concentrations of the compound at different incubation time points were determined, and the half-life of the compound was calculated by curve plotted based on the relative contents of the compound and the corresponding incubation times by using GraphPad Prism 5.01. Then the intrinsic clearance was calculated.
(§3) The peak area ratio of sample to internal standard was analyzed by the LC/MS/MS system. The content of the compound at 0 min was 100%, and the relative contents of the compound at different time points were calculated. The half-life of the compound was calculated by curve plotted based on the relative contents of the compound and the corresponding incubation times, and the intrinsic clearance was calculated.

human 5-HT6 receptor = human 5-HT6 receptor (Homo sapiens (Human), UniProt P50406); assay: Radioligand binding assay, human 5-HT6 receptor expressed in CHO cell; details: 2 nM [3H]LSD
Sequence of human 5-HT6 receptor (P50406 whole entry): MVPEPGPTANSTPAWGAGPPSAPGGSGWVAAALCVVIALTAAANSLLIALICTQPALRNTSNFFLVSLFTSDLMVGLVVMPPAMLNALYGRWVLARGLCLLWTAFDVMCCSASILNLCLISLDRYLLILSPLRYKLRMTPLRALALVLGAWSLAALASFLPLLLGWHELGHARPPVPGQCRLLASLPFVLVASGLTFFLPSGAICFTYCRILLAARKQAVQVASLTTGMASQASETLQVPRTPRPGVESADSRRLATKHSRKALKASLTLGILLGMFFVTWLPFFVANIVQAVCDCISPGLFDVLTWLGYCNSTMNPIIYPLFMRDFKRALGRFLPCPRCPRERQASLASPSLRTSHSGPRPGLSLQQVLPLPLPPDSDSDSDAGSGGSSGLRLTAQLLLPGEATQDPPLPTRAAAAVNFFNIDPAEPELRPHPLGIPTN
Protocol: Example A: The Binding Affinities of the Compounds of this Invention to Human 5-HT6 Receptor Expressed in CHO Cell were Evaluated by Radioligand Binding Assay as Follows
32 μg membrane proteins of CHO cell expressing human 5-HT6 receptor, 2 nM of radioactive marker [3H]LSD, a compound of the present invention having different test concentrations, 100 μM 5-HT (5-HT was used to eliminate nonspecific binding sites) and a buffer solution were mixed uniformly. Then the resulting mixture was incubated at 37° C. for 120 min, in which the buffer solution comprised 50 mM Tris-HCl (pH 7.4), 10 mM MgCl2, 0.5 mM EDTA, 10 μM pargyline and 20 mg/L protease inhibitor.
After incubation, the resulting mixture was filtered by a fiberglass filter (GF/B, Packard) in vacuo, and the filter membrane of the fiberglass filter was preimpregnated with 0.3% PEI before the filtering and washed with 50 mM of Tris-HCl for several times after the filtering. After the filter membrane was dried, and the radioactivity of filter membrane was determined by liquid scintillation counting by using a scintillometer (Topcount, Packard). The reference standard was 5-HT, and competitive inhibition curves were plotted based on several inhibition ratios and the corresponding compound concentrations. IC50 values were calculated by non-linear regression analysis using Hill equation curves, and the Ki values were calculated from IC50 by using the ChengPrusoff equation.

[3] = Stability in human liver microsomes; type: in vitro ADME; details: for half-life at 1 μM / CLint scaled at 1 μM: liver microsomes, human liver microsome 0.5 mg/mL, 1 μM compound, 37° C., pH 7.4; for CLint scaled at 1 μM: read-out: Intrinsic clearance
Protocol: as §1, §2, §3

[4] = intravenous drug delivery group, dose 1 mg/kg
[5] = po, gavage group, dose 2.5 mg/kg

Row | Structure (SMILES) | AUC(0-inf) [1, 4] | AUC(0-t) [1, 4] | Cmax [1, 4] | MRT inf [1, 4] | Tmax [1, 4] | clearance [1, 4] | half-life [1, 4] | Vd [1, 4] | AUC(0-inf) [1, 5] | AUC(0-t) [1, 5] | Cmax [1, 5] | MRT inf [1, 5] | Tmax [1, 5] | half-life [1, 5] | F ([1]; gavage group, dose 2.5 mg/kg) | half-life at 1 μM [2] | CLint scaled at 1 μM [2] | Ki (human 5-HT6 receptor) | half-life at 1 μM [3] | CLint scaled at 1 μM [3] | also measured
1 | O=S(=O)(c1ccccc1F)n1cc(C(F)F)c2c(N3CCNCC3)cccc21 [Example 2, 3-(difluoromethyl)-1-((2-fluorophenyl)sulfonyl)-4-(piperazin-1-yl)-1H-indole] | 926 ng·h/mL | 781 ng·h/mL | 106 ng/mL | 8.73 h | 0.194 h | 18.5 mL/min/kg | 6.43 h | 9.86 L/kg | 3160 ng·h/mL | 2400 ng·h/mL | 173 ng/mL | 16.8 h | 3.33 h | 11.4 h | 103.67% | 0.583 h | 71 mL/min/kg | 0.46 nM | 2.22 h | 13.1 mL/min/kg | 
2 | O=S(=O)(c1ccccc1Cl)n1cc(C(F)F)c2c(N3CCNCC3)cccc21 [Example 3, 1-((2-chlorophenyl)sulfonyl)-3-(difluoromethyl)-4-(piperazin-1-yl)-1H-indole] | 2340 ng·h/mL | 2660 ng·h/mL | 293 ng/mL | 8.77 h | 8.06 h | 7.13 mL/min/kg | 6.26 h | 3.77 L/kg | 17600 ng·h/mL | 9250 ng·h/mL | 975 ng/mL | 17.9 h | 4.67 h | 14.7 h | 139% | 0.501 h | 82.6 mL/min/kg | 0.43 nM | 2.2 h | 13.2 mL/min/kg | 
3 | O=S(=O)(c1cccc(F)c1)n1cc(C(F)F)c2c(N3CCNCC3)cccc21 [Example 5, 3-(difluoromethyl)-1-((3-fluorophenyl)sulfonyl)-4-(piperazin-1-yl)-1H-indole] | 1190 ng·h/mL | 1100 ng·h/mL | 125 ng/mL | 8.77 h | 0.389 h | 14 mL/min/kg | 6.49 h | 7.36 L/kg |  |  |  |  |  |  |  | 0.725 h | 57.1 mL/min/kg | 0.52 nM | 3.62 h | 7.99 mL/min/kg | AUC(0-inf) ([1]; po, gavage group, dose 5 mg/kg): 8350 ng·h/mL; AUC(0-t) ([1]; po, gavage group, dose 5 mg/kg): 5680 ng·h/mL; Cmax ([1]; po, gavage group, dose 5 mg/kg): 347 ng/mL; MRT inf ([1]; po, gavage group, dose 5 mg/kg): 15 h; Tmax ([1]; po, gavage group, dose 5 mg/kg): 6 h; half-life ([1]; po, gavage group, dose 5 mg/kg): 10.1 h; F ([1]; gavage group, dose 5 mg/kg): 103.21%; degradation in human liver microsomes in vitro ([3]; in 60 minutes): almost had no degradation
